9 compounds from ChEMBL document CHEMBL1201862, “PubChem BioAssay data set” (2004) can be followed below.

Some test systems named below: 786-0; ACHN; HOP-92; IGROV-1; LOX IMVI; M14; NCI-H23; NCI-H460; NCI-H522; OVCAR-5; OVCAR-8; RXF 393; SF-268; SNB-75; SW-620; U-251; UACC-257; A498; NCI-H226.
What all share (experiment): NCI-60 cell line screen, 48 h

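How tested: cells in 96-well plates exposed to compound for 48 hours at five concentrations. GI50: concentration for 50% inhibition of growth.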 Active and inactive are the calls of the source. Rule as the data show it: active = GI50 up to about 1.1 µM and inactive = higher.

Take `O=C(O)c1ccccc1C1c2ccc(Cl)cc2Oc2cc(Cl)ccc21`: the GI50 with 786-0, in the assay on ACHN, with HOP-92, in the assay on IGROV-1, in the assay on LOX IMVI and with M14 was > 100 µM (inactive) each time. In addition, the GI50 in the assay on NCI-H23, with NCI-H460, in the assay on NCI-H522, in the assay with OVCAR-5, with OVCAR-8 and in the assay on RXF 393 was > 100 µM (inactive) each time. The GI50 in the assay on SF-268, in the assay with SNB-75, in the assay on SW-620, in the assay with U-251 and in the assay on UACC-257 was > 100 µM (inactive) in each case.
As for `CCOC(=O)NC(=O)c1cn(CCCOC(=O)CCCCCCCCC(=O)OCCCn2cc(C(=O)NC(=O)OCC)c(=O)[nH]c2=O)c(=O)[nH]c1=O`, the GI50 was 15.8 µM (inactive) in the assay with 786-0; 21.7 µM (inactive) with A498; 21.1 µM (inactive) in the assay on ACHN; 20.9 µM (inactive) in the assay with IGROV-1; 16.4 µM (inactive) in the assay with LOX IMVI; 21.5 µM (inactive) in the assay on M14. In addition, the GI50 with NCI-H23 was > 10 µM (inactive); in the assay on NCI-H460 it was 39.4 µM (inactive); in the assay on OVCAR-8 it was 23 µM (inactive); in the assay with RXF 393, > 10 µM (inactive); in the assay on SNB-75, 32.5 µM (inactive); in the assay on SW-620, 15 µM (inactive). The GI50 in the assay on U-251 is 16.7 µM (inactive); with UACC-257, 16.9 µM (inactive).
Take `CCOP1(=O)C=C(C)C(=C(Cl)Cl)C(C)=C1` (stereo unspecified): the GI50 was 23.7 µM (inactive) in the assay with 786-0; 19.2 µM (inactive) with A498; 17.1 µM (inactive) in the assay with ACHN; 24 µM (inactive) with IGROV-1; 4.36 µM (inactive) in the assay with LOX IMVI; 8.32 µM (inactive) in the assay with M14. For the same compound, the GI50 with NCI-H226 is 2.39 µM (inactive); in the assay with NCI-H23, 15.8 µM (inactive); with NCI-H460 it was 17.5 µM (inactive); in the assay with NCI-H522, 3.58 µM (inactive); in the assay on OVCAR-8, 20.7 µM (inactive); in the assay with RXF 393, 15.6 µM (inactive). For the same compound, the GI50 in the assay with SF-268 is 9.57 µM (inactive); in the assay with SNB-75, 3.33 µM (inactive); in the assay with SW-620 it was 7.45 µM (inactive); with U-251, 13.9 µM (inactive); in the assay on UACC-257, 3.54 µM (inactive).
`Cc1cc(C)c(C(=O)/C=C/c2ccccc2)c(C)c1`: the GI50 in the assay with 786-0 was 27.7 µM (inactive); in the assay with ACHN it was 38.4 µM (inactive); in the assay on HOP-92, 19.1 µM (inactive); with IGROV-1 it was 77.4 µM (inactive); in the assay on M14, 19.4 µM (inactive); with NCI-H226, 22.8 µM (inactive). In addition, the GI50 is 26.4 µM (inactive) in the assay on NCI-H23; 18.7 µM (inactive) with NCI-H460; 19.1 µM (inactive) with NCI-H522; 15.5 µM (inactive) in the assay with OVCAR-8; 15.8 µM (inactive) in the assay with RXF 393; 20.6 µM (inactive) with SF-268. For the same compound, the GI50 is 40.9 µM (inactive) with SNB-75, 23 µM (inactive) with SW-620, 15.9 µM (inactive) with U-251 and 33.8 µM (inactive) with UACC-257.
With `Cc1ccc(OCC(=O)N2N=C(c3ccccc3)CC2(O)c2ccccc2)cc1` (stereo unspecified), the GI50 with 786-0 was 16.4 µM (inactive); with ACHN it was > 100 µM (inactive); with HOP-92, 55.2 µM (inactive); in the assay on IGROV-1, 39.4 µM (inactive); with LOX IMVI it was 99.5 µM (inactive); in the assay on M14 it was 34.4 µM (inactive). Further, the GI50 in the assay with NCI-H226 was 25.9 µM (inactive); with NCI-H23, 22.6 µM (inactive); with NCI-H460, 15 µM (inactive); in the assay on NCI-H522 it was > 100 µM (inactive); in the assay on OVCAR-5 it was 18.1 µM (inactive); in the assay with OVCAR-8, 91.2 µM (inactive). Moreover, the GI50 in the assay on SF-268 is > 100 µM (inactive); with SNB-75, 55.3 µM (inactive); in the assay on SW-620, 51.6 µM (inactive); in the assay with U-251, 13 µM (inactive); in the assay with UACC-257 it was > 100 µM (inactive).
In the case of `COc1cccc(/C=C\c2cc(OC)c(OC)c(OC)c2)c1`, the GI50 was 0.575 µM (active) in the assay on 786-0; 5.79 µM (inactive) in the assay on ACHN; 22.6 µM (inactive) in the assay on HOP-92; 3.15 µM (inactive) in the assay on IGROV-1; 0.604 µM (active) in the assay with M14; 0.745 µM (active) in the assay with NCI-H226. For the same compound, the GI50 in the assay with NCI-H23 was 1.32 µM (inactive); in the assay on NCI-H460 it was 0.562 µM (active); with NCI-H522 it was 0.375 µM (active); in the assay with OVCAR-5, 22.2 µM (inactive); in the assay with OVCAR-8 it was 3.49 µM (inactive); in the assay on SF-268 it was 3.66 µM (inactive). Also, the GI50 in the assay on SNB-75 is 0.652 µM (active); in the assay with SW-620, 0.656 µM (active); with U-251 it was 0.407 µM (active); in the assay with UACC-257, 0.505 µM (active).
As to `Nc1nc(=O)n(C2CC(O)C(O)C(CO)O2)cc1F` (stereo unspecified), the GI50 with 786-0, with A498, with ACHN, in the assay with IGROV-1, in the assay with LOX IMVI and in the assay on M14 was > 100 µM (inactive) in each case. Besides, the GI50 with NCI-H226, in the assay on NCI-H23, in the assay with NCI-H460, with NCI-H522, in the assay on OVCAR-5 and in the assay with OVCAR-8 was > 100 µM (inactive) in each case. Besides, the GI50 in the assay on RXF 393, with SF-268, with SNB-75, with SW-620, with U-251 and in the assay with UACC-257 was > 100 µM (inactive) in each case.
Consider `O=C(NCCOC(=O)CCCCCCCCC(=O)OCCNC(=O)NC(=O)c1cn(Cc2ccccc2)c(=O)[nH]c1=O)NC(=O)c1cn(Cc2ccccc2)c(=O)[nH]c1=O`, for which the GI50 with 786-0, in the assay with A498, with ACHN, in the assay on IGROV-1, in the assay on LOX IMVI and with M14 was > 100 µM (inactive) throughout. Further, the GI50 in the assay with NCI-H226, with NCI-H23, in the assay with NCI-H460, in the assay on NCI-H522, in the assay on OVCAR-5 and in the assay with OVCAR-8 was > 100 µM (inactive) each time. In addition, the GI50 with SF-268, in the assay with SNB-75, in the assay on SW-620, with U-251 and in the assay on UACC-257 was > 100 µM (inactive) in each case.
For the compound `CC1C(c2ccc(Cl)cc2)c2cc3c(cc2OC1N1CCOCC1)OCO3` (stereo unspecified), the GI50 was 56.8 µM (inactive) in the assay with 786-0; 35.3 µM (inactive) in the assay with ACHN; > 100 µM (inactive) with IGROV-1; > 100 µM (inactive) in the assay on LOX IMVI; 85.3 µM (inactive) in the assay with M14; > 100 µM (inactive) in the assay with NCI-H23. The GI50 in the assay on NCI-H460 was > 100 µM (inactive); with NCI-H522 it was 46.3 µM (inactive); with OVCAR-5 it was > 100 µM (inactive); in the assay with OVCAR-8, > 100 µM (inactive); with SF-268, > 100 µM (inactive); in the assay on SNB-75 it was 44.1 µM (inactive). In addition, the GI50 with SW-620 is > 100 µM (inactive); in the assay on UACC-257 it was 86.1 µM (inactive).
